Source: patent US6472348B1, “Pyridone derivatives and herbicides” (Kumiai Chemical Industry Co., Ltd., priority 1996, dated 2002)

Legend:
Assay type in all cases: in vivo
Parameters in all cases: scale not given here
[1] = test system: Diaitaria ciliaris (Di); assay: Test Example 3: herbicidal effects by upland field foliage treatment
Procedure, shortened: (§1)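 Scoring used a standard effect scale on the 14th day post-treatment, with plants held in a greenhouse throughout. Foliar application was made to weeds raised from seed in sand-filled pots for 2 weeks.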

[2] = test system: barnyardgrass (Ec); assay: as above
Procedure, shortened: as §1

[3] = test system: common lambsquarters (Ch); assay: as above
Procedure, shortened: as §1

[4] = test system: pale smartweed (Po); assay: as above
Procedure, shortened: as §1

[5] = test system: rice flatsedge (Ci); assay: as above
Procedure, shortened: as §1

[6] = test system: slender amaranth (Am); assay: as above
Procedure, shortened: as §1

[7] = test system: China jute (Ab); assay: Test Example 4: crop plant selectivity by upland field soil treatment (cotton), herbicidal effects; conditions: evaluated 21st day after application
Procedure, shortened: (§2)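 Upland soil-treatment selectivity test: scoring on day 21 post-application in a greenhouse, rating crop phytotoxicity on cotton and herbicidal effect on co-sown weeds. Seeds were sown in sand-filled pots and covered with soil before treatment.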

[8] = test system: green foxtail (Se); assay: as above; conditions: evaluated 21st day after application
Procedure, shortened: as §2

[9] = test system: pale smartweed (Po); assay: as above; conditions: evaluated 21st day after application
Procedure, shortened: as §2

[10] = test system: slender amaranth (Am); assay: as above; conditions: evaluated 21st day after application
Procedure, shortened: as §2

[11] = 100 g active ingredient per 10 ares, evaluated 14th day after treatment
[12] = 100 g of the active ingredient per 10 ares, evaluated on the 14th day after treatment

SMILES | Herbicidal effects Di [1, 11] | Herbicidal effects Ec [2, 11] | Herbicidal effects Ch [3, 11] | Herbicidal effects Po [4, 11] | Herbicidal effects Ci [5, 11] | Herbicidal effects Am [6, 11] | Herbicidal effects Ab ([7]; dose 1.6 g ai/10 a) | Herbicidal effects Ab ([7]; dose 6.3 g ai/10 a) | Herbicidal effects Se ([8]; dose 1.6 g ai/10 a) | Herbicidal effects Se ([8]; dose 6.3 g ai/10 a) | Herbicidal effects Po ([9]; dose 1.6 g ai/10 a) | Herbicidal effects Po ([9]; dose 6.3 g ai/10 a) | Herbicidal effects Am ([10]; dose 1.6 g ai/10 a) | Herbicidal effects Am ([10]; dose 6.3 g ai/10 a) | Herbicidal effects Di [1, 12] | Herbicidal effects Ec [2, 12] | Herbicidal effects Ch [3, 12] | Herbicidal effects Po [4, 12] | Herbicidal effects Ci [5, 12] | Herbicidal effects Am [6, 12]
C#CC(C)Oc1cc(Cl)cc(F)c1-c1ccc(C(F)(F)F)n(C)c1=O (centres unmarked) [1′-5] | 5 | 5 | 5 | 5 | 5 | 5 | 5 | 5 | 4 | 5 | 5 | 5 | 5 | 5 |  |  |  |  |  | 
COCSc1cc(-c2ccc(C(F)(F)F)n(C)c2=O)c(F)cc1Cl [1-91] |  |  |  |  |  |  | 5 | 5 | 5 | 5 | 5 | 5 | 5 | 5 | 5 | 5 | 5 | 5 | 5 | 5
Cn1c(C(F)(F)F)ccc(-c2c(F)cc(Cl)c3oc(CO)cc23)c1=O [Compound No. 4-5, 3-(7-chloro-5-fluoro-2-hydroxymethylbenzofuran-4-yl)-1-methyl-6-trifluoromethyl-2-(1H)-pyridone] | 5 | 5 | 5 | 5 | 5 | 5 |  | 5 |  | 5 |  | 5 |  | 5 |  |  |  |  |  | 
Cc1cc(-c2ccc(C(F)(F)F)n(C)c2=O)c(F)cc1Cl [1-90] |  |  |  |  |  |  |  | 5 |  | 5 |  | 5 |  | 5 | 5 | 5 | 5 | 5 | 5 | 5
Cn1c(C(F)(F)F)ccc(-c2cc(OCCCl)c(Cl)cc2F)c1=O [1-171] |  |  |  |  |  |  |  | 5 |  | 5 |  | 5 |  | 5 | 5 | 5 | 5 | 5 | 5 | 5
CC(C)Sc1cc(-c2ccc(C(F)(F)F)n(C)c2=O)c(F)cc1Cl [1-43] |  |  |  |  |  |  |  | 4 |  | 5 |  | 5 |  | 5 | 5 | 5 | 5 | 5 | 5 | 5
CCOC(=O)CON=Cc1cc(-c2ccc(C(F)(F)F)n(C)c2=O)c(F)cc1Cl [Compound 1-191] | 5 | 5 | 5 | 5 | 5 | 5 |  | 5 |  | 5 |  | 5 |  | 5 |  |  |  |  |  | 
C#CCOc1cc(-c2ccc(C(F)(F)F)n(C)c2=O)c(F)cc1Cl [1-18] |  |  |  |  |  |  | 5 | 5 | 5 | 5 | 5 | 5 | 5 | 5 | 5 | 5 | 5 | 5 | 5 | 5
Cc1cc2c(-c3cn(C)c(C(F)(F)F)cc3=O)c(F)cc(Cl)c2o1 [Compound No. 9-1, 5-(7-chloro-5-fluoro-2-methylbenzofuran-4-yl)-1-methyl-2-trifluoromethyl-4(1H)-pyridone] | 5 | 5 | 5 | 5 | 5 | 5 | 5 | 5 | 5 | 5 | 4 | 5 | 5 | 5 |  |  |  |  |  | 
C#CCN1C(=O)COc2cc(Cl)c(-c3ccc(C(F)(F)F)n(C)c3=O)cc21 [Compound 2-25] | 5 | 5 | 5 | 5 | 5 | 5 | 5 | 5 | 5 | 5 | 5 | 5 | 5 | 5 |  |  |  |  |  | 
Cn1c(C(F)(F)F)ccc(-c2cc(OCC(F)(F)F)c(Cl)cc2F)c1=O [1-155] |  |  |  |  |  |  | 5 | 5 | 5 | 5 | 5 | 5 | 5 | 5 | 5 | 5 | 5 | 5 | 5 | 5
